From PubChem BioAssay (NCI)
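Assay format: 96-well plates, 48-hour exposure. TGI: total growth inhibition.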

Assays:
Experiment in all cases: NCI-60 cell line screen, 48 h
SNB-75 CNS = test system: SNB-75 CNS
ACHN renal = test system: ACHN renal
M14 melanoma = test system: M14 melanoma
OVCAR-5 ovarian = test system: OVCAR-5 ovarian
DU-145 prostate = test system: DU-145 prostate
EKVX NSCLC = test system: EKVX NSCLC
T-47D breast = test system: T-47D breast
MDA-MB-435 = test system: MDA-MB-435
OVCAR-4 ovarian = test system: OVCAR-4 ovarian
SK-OV-3 ovarian = test system: SK-OV-3 ovarian
NCI-H226 lung = test system: NCI-H226 lung
NCI-H460 lung = test system: NCI-H460 lung
SK-MEL-2 melanoma = test system: SK-MEL-2 melanoma
OVCAR-8 ovarian = test system: OVCAR-8 ovarian
UO-31 renal = test system: UO-31 renal
U251 CNS = test system: U251 CNS
UACC-257 melanoma = test system: UACC-257 melanoma
MDA-MB-231 breast = test system: MDA-MB-231 breast
MDA-N = test system: MDA-N
COLO 205 colon = test system: COLO 205 colon
SK-MEL-28 melanoma = test system: SK-MEL-28 melanoma
786-0 renal = test system: 786-0 renal
SF-295 CNS = test system: SF-295 CNS
SF-539 CNS = test system: SF-539 CNS
SW-620 colon = test system: SW-620 colon
SK-MEL-5 melanoma = test system: SK-MEL-5 melanoma
SN12C renal = test system: SN12C renal
A498 renal = test system: A498 renal
UACC-62 melanoma = test system: UACC-62 melanoma
SNB-19 CNS = test system: SNB-19 CNS
MOLT-4 leukemia = test system: MOLT-4 leukemia
SR leukemia = test system: SR leukemia
HOP-92 NSCLC = test system: HOP-92 NSCLC
A549 NSCLC = test system: A549 NSCLC
OVCAR-3 ovarian = test system: OVCAR-3 ovarian
MALME-3M melanoma = test system: MALME-3M melanoma
HOP-62 NSCLC = test system: HOP-62 NSCLC
NCI-H23 lung = test system: NCI-H23 lung
MCF7 breast = test system: MCF7 breast
PC-3 prostate = test system: PC-3 prostate
NCI/ADR-RES ovarian = test system: NCI/ADR-RES ovarian
RPMI-8226 leukemia = test system: RPMI-8226 leukemia
K-562 leukemia = test system: K-562 leukemia
TK-10 renal = test system: TK-10 renal
SF-268 CNS = test system: SF-268 CNS
KM12 colon = test system: KM12 colon
BT-549 breast = test system: BT-549 breast
NCI-H522 lung = test system: NCI-H522 lung
HCC-2998 colon = test system: HCC-2998 colon
LOX IMVI melanoma = test system: LOX IMVI melanoma
HT29 colon = test system: HT29 colon
CAKI-1 renal = test system: CAKI-1 renal
CCRF-CEM leukemia = test system: CCRF-CEM leukemia
HL-60(TB) leukemia = test system: HL-60(TB) leukemia
HCT-15 colon = test system: HCT-15 colon
HCT-116 colon = test system: HCT-116 colon
IGROV1 ovarian = test system: IGROV1 ovarian
HS 578T breast = test system: HS 578T breast
RXF 393 renal = test system: RXF 393 renal

COc1c(O)c(OC)c2oc(-c3ccc(O)c(O)c3)c(OC)c(=O)c2c1O
TGI (SNB-75 CNS): 11.5 µM | TGI (ACHN renal): > 100 µM | TGI (M14 melanoma): 50.7 µM | TGI (OVCAR-5 ovarian): > 100 µM | TGI (DU-145 prostate): 98.8 µM | TGI (EKVX NSCLC): 94 µM | TGI (T-47D breast): 33 µM | TGI (MDA-MB-435): 56.7 µM | TGI (OVCAR-4 ovarian): > 100 µM | TGI (SK-OV-3 ovarian): 54.4 µM | TGI (NCI-H226 lung): > 100 µM | TGI (NCI-H460 lung): > 100 µM | TGI (SK-MEL-2 melanoma): 28.3 µM | TGI (OVCAR-8 ovarian): > 100 µM | TGI (UO-31 renal): 89.8 µM | TGI (U251 CNS): 78.1 µM | TGI (UACC-257 melanoma): > 100 µM | TGI (MDA-MB-231 breast): > 100 µM | TGI (MDA-N): > 100 µM | TGI (COLO 205 colon): > 100 µM | TGI (SK-MEL-28 melanoma): > 100 µM | TGI (786-0 renal): 50.9 µM | TGI (SF-295 CNS): > 100 µM | TGI (SF-539 CNS): > 100 µM | TGI (SW-620 colon): > 100 µM | TGI (SK-MEL-5 melanoma): 50.8 µM | TGI (SN12C renal): > 100 µM | TGI (A498 renal): > 100 µM | TGI (UACC-62 melanoma): 47.8 µM | TGI (SNB-19 CNS): > 100 µM | TGI (MOLT-4 leukemia): > 100 µM | TGI (SR leukemia): > 100 µM | TGI (HOP-92 NSCLC): 66 µM | TGI (A549 NSCLC): > 100 µM | TGI (OVCAR-3 ovarian): 8.53 µM | TGI (MALME-3M melanoma): 68 µM | TGI (HOP-62 NSCLC): 43.7 µM | TGI (NCI-H23 lung): > 100 µM | TGI (MCF7 breast): 34 µM | TGI (PC-3 prostate): > 100 µM | TGI (NCI/ADR-RES ovarian): > 100 µM | TGI (RPMI-8226 leukemia): > 100 µM | TGI (K-562 leukemia): > 100 µM | TGI (TK-10 renal): 99.5 µM | TGI (SF-268 CNS): 10.3 µM | TGI (KM12 colon): > 100 µM | TGI (BT-549 breast): > 100 µM | TGI (NCI-H522 lung): 33.4 µM | TGI (HCC-2998 colon): 98 µM | TGI (LOX IMVI melanoma): 95.9 µM | TGI (HT29 colon): > 100 µM | TGI (CAKI-1 renal): > 100 µM | TGI (CCRF-CEM leukemia): > 100 µM | TGI (HL-60(TB) leukemia): 68.7 µM | TGI (HCT-15 colon): > 100 µM | TGI (HCT-116 colon): > 100 µM | TGI (IGROV1 ovarian): 25.7 µM

CC(C)N1CC2CN(Cc3ccccc3)CC(C1)C2=O
TGI (SNB-75 CNS): > 100 µM | TGI (ACHN renal): > 100 µM | TGI (M14 melanoma): > 100 µM | TGI (OVCAR-5 ovarian): > 100 µM | TGI (DU-145 prostate): > 100 µM | TGI (MDA-MB-435): > 100 µM | TGI (OVCAR-4 ovarian): > 100 µM | TGI (SK-OV-3 ovarian): > 100 µM | TGI (HS 578T breast): > 100 µM | TGI (NCI-H226 lung): > 100 µM | TGI (NCI-H460 lung): > 100 µM | TGI (SK-MEL-2 melanoma): > 100 µM | TGI (RXF 393 renal): > 100 µM | TGI (OVCAR-8 ovarian): > 100 µM | TGI (UO-31 renal): > 100 µM | TGI (U251 CNS): > 100 µM | TGI (UACC-257 melanoma): > 100 µM | TGI (MDA-MB-231 breast): > 100 µM | TGI (MDA-N): > 100 µM | TGI (COLO 205 colon): > 100 µM | TGI (SK-MEL-28 melanoma): > 100 µM | TGI (786-0 renal): > 100 µM | TGI (SF-295 CNS): > 100 µM | TGI (SF-539 CNS): > 100 µM | TGI (SW-620 colon): > 100 µM | TGI (SN12C renal): > 100 µM | TGI (UACC-62 melanoma): > 100 µM | TGI (SNB-19 CNS): > 100 µM | TGI (MOLT-4 leukemia): > 100 µM | TGI (SR leukemia): > 100 µM | TGI (HOP-92 NSCLC): > 100 µM | TGI (A549 NSCLC): > 100 µM | TGI (OVCAR-3 ovarian): > 100 µM | TGI (MALME-3M melanoma): > 100 µM | TGI (HOP-62 NSCLC): > 100 µM | TGI (NCI-H23 lung): > 100 µM | TGI (MCF7 breast): > 100 µM | TGI (PC-3 prostate): > 100 µM | TGI (NCI/ADR-RES ovarian): > 100 µM | TGI (RPMI-8226 leukemia): > 100 µM | TGI (K-562 leukemia): > 100 µM | TGI (TK-10 renal): > 100 µM | TGI (SF-268 CNS): > 100 µM | TGI (KM12 colon): > 100 µM | TGI (BT-549 breast): > 100 µM | TGI (NCI-H522 lung): > 100 µM | TGI (HCC-2998 colon): > 100 µM | TGI (LOX IMVI melanoma): > 100 µM | TGI (HT29 colon): > 100 µM | TGI (CAKI-1 renal): > 100 µM | TGI (CCRF-CEM leukemia): > 100 µM | TGI (HL-60(TB) leukemia): > 100 µM | TGI (HCT-15 colon): > 100 µM | TGI (HCT-116 colon): > 100 µM | TGI (IGROV1 ovarian): > 100 µM

CCCC(=O)Nc1cc(/C=C/C(=O)N2CC(CCl)c3c2cc(OCc2ccccc2)c2[nH]cc(C)c32)n(C)c1 (stereo unspecified)
TGI (SNB-75 CNS): 0.381 µM | TGI (ACHN renal): 0.0833 µM | TGI (OVCAR-5 ovarian): 1.22 µM | TGI (EKVX NSCLC): 0.635 µM | TGI (T-47D breast): 1.7 µM | TGI (MDA-MB-435): 0.918 µM | TGI (OVCAR-4 ovarian): 0.889 µM | TGI (SK-OV-3 ovarian): > 25 µM | TGI (HS 578T breast): 0.468 µM | TGI (NCI-H226 lung): 0.941 µM | TGI (NCI-H460 lung): 0.0588 µM | TGI (SK-MEL-2 melanoma): 0.218 µM | TGI (RXF 393 renal): 0.0852 µM | TGI (OVCAR-8 ovarian): 0.202 µM | TGI (UO-31 renal): 0.215 µM | TGI (U251 CNS): > 9.21 µM | TGI (UACC-257 melanoma): 0.868 µM | TGI (MDA-MB-231 breast): > 25 µM | TGI (MDA-N): 1.67 µM | TGI (COLO 205 colon): 1.22 µM | TGI (SK-MEL-28 melanoma): 1.54 µM | TGI (786-0 renal): 2.89 µM | TGI (SF-295 CNS): 0.334 µM | TGI (SF-539 CNS): 0.165 µM | TGI (SW-620 colon): > 25 µM | TGI (SK-MEL-5 melanoma): 0.131 µM | TGI (SN12C renal): > 25 µM | TGI (A498 renal): 1.14 µM | TGI (UACC-62 melanoma): 0.0934 µM | TGI (SNB-19 CNS): 24.6 µM | TGI (MOLT-4 leukemia): 0.61 µM | TGI (SR leukemia): 0.0722 µM | TGI (HOP-92 NSCLC): 0.213 µM | TGI (OVCAR-3 ovarian): 0.512 µM | TGI (MALME-3M melanoma): 0.353 µM | TGI (HOP-62 NSCLC): 0.453 µM | TGI (NCI-H23 lung): 0.0654 µM | TGI (PC-3 prostate): > 13.1 µM | TGI (NCI/ADR-RES ovarian): 0.182 µM | TGI (RPMI-8226 leukemia): 1.3 µM | TGI (K-562 leukemia): 0.904 µM | TGI (TK-10 renal): 2.47 µM | TGI (SF-268 CNS): 0.907 µM | TGI (KM12 colon): 0.602 µM | TGI (BT-549 breast): 3.14 µM | TGI (NCI-H522 lung): 0.0267 µM | TGI (LOX IMVI melanoma): 6.71 µM | TGI (HT29 colon): 0.488 µM | TGI (CAKI-1 renal): 2.09 µM | TGI (CCRF-CEM leukemia): 0.244 µM | TGI (HL-60(TB) leukemia): 0.26 µM | TGI (HCT-15 colon): 0.93 µM | TGI (HCT-116 colon): 0.225 µM | TGI (IGROV1 ovarian): > 25 µM
